From patent publication US4461771A, “Treatment of migraine with dioxopiperidine derivatives” (priority 1983, dated 1984)
Structures can show the parent of a compound that is named as a salt.

Experiments:
[1] = system: 5-HT transmission; assay: Fenfluramine-induced hyperthermia in rats (reduction of 5-HT transmission in vivo); settings: four day chronic pretreatment, 10 mg/kg ip. twice daily, fenfluramine 7.5 mg/kg ip.
Experimental: The activity of the compounds to reduce 5-HT transmission can be assessed in vivo by measuring their effect on the hyperthermia induced by an intraperitoneal injection of fenfluramine (see A. Sulpizio et al, Life Sciences 22 1439 (1978). As an illustration a four day chronic pretreatment of rats with 3-(3'-methoxyphenyl)-3-(3"-N,N dimethylaminopropyl) 4,4-dimethyl-2,6-dioxopiperidine hydrochloride at a dose level of 10 mg/kg ip. twice daily produced a 50 percent reduction in the hyperthermia induced by fenfluramine administered at a dose level of 7.5 mg/kg ip.

[2] = system: tryptophan hydroxylase; assay: Inhibition of the depolarisation induction of tryptophan hydroxylase in rat brainstem slices; format: cell-based; settings: 37° C., from concentration response curves, read-out: IC50, concentration causing 50 percent inhibition of the depolarisation induction of tryptophan hydroxylase
Experimental: The activity of the compounds as inhibitors of the depolarisation induction of tryptophan hydroxylase can be assessed by determining the IC50 in rat brainstem slices as described by Margaret C. Boadle-Biber, Biochemical Pharmacology 27 1069 (1978). The IC50 values are derived from concentration response curves as the concentration causing 50 percent inhibition of the depolarisation induction at 37° C. As an illustration the IC50 of d,l 3-(3'-methoxyphenyl)-3-(3"-N,N-dimethylaminopropyl)-4,4-dimethyl-2,6-dioxopiperidine hydrochloride is 10 μM.

SMILES: COc1cccc(C2(CCCN(C)C)C(=O)NC(=O)CC2(C)C)c1 (racemic) [Example 1, 3-(3'-Methoxyphenyl-3-(3"-N,N-dimethylaminopropyl)-4,4-dimethyl-2,6-dioxopiperidine hydrochloride]
- reduction in the hyperthermia induced by fenfluramine [1]: 50%
- IC50 [2]: 10 µM
